Source: patent publication US8940731B2, “Substituted pyridyl amide compounds as modulators of the histamine H3 receptor” (Janssen Pharmaceutica NV, priority 2006, dated 2015)
Counter-ions that a name gives are not always drawn.

target: T1, cloned human H3 receptors (Homo sapiens, UniProt Q9Y5N1); assay: H3 Receptor Binding (Human); details: bromo-pyridine intermediates (Step A), value given in the synthesis; read-out: Assay 1 (Human H3): Ki
T1 construct: expressed in transfected cells
Method: H3 Receptor Binding (Human)
Binding of compounds to the cloned human H3 receptors, stably expressed in SK-N-MC cells, was performed as described by Barbier, A. J. et al. (Br. J. Pharmacol. 2004, 143(5), 649-661).

T1 sequence (Q9Y5N1 whole entry): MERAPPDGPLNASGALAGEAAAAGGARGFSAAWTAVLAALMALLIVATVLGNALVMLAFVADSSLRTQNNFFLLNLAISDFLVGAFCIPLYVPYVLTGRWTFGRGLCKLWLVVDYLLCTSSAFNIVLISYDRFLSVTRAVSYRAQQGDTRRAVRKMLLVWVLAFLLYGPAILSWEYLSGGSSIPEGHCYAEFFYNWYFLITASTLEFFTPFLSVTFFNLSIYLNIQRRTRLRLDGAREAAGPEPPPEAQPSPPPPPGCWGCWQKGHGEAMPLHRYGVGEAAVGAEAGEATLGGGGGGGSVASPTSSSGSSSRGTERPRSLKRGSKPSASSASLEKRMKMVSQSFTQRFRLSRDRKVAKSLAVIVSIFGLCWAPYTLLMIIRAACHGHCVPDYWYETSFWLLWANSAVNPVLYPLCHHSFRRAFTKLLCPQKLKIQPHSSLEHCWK

| Ki | SMILES |
| --- | --- |
| 0.011 µM | O=C(c1ccc(Br)cn1)N1CCCN(C2CCC2)CC1 [(5-Bromo-pyridin-2-yl)-(4-cyclobutyl-[1,4]diazepan-1-yl)-methanone] |
| 0.115 µM | O=C(c1ccc(Br)cn1)N1CCCN(C2CC2)CC1 [(5-Bromo-pyridin-2-yl)-(4-cyclopropyl-[1,4]diazepan-1-yl)-methanone] |
| 0.194 µM | CC(C)N1CCCN(C(=O)c2ccc(Br)cn2)CC1 [(5-Bromo-pyridin-2-yl)-(4-isopropyl-[1,4]diazepan-1-yl)-methanone] |
| 0.033 µM | O=C(c1cccc(Br)n1)N1CCCN(C2CCC2)CC1 [(6-Bromo-pyridin-2-yl)-(4-cyclobutyl-[1,4]diazepan-1-yl)-methanone] |

| SMILES | Ki |
| --- | --- |
| O=C(c1cccc(Br)n1)N1CCCN(C2CC2)CC1 [(6-Bromo-pyridin-2-yl)-(4-cyclopropyl-[1,4]diazepan-1-yl)-methanone] | 0.431 µM |
| CC(C)N1CCCN(C(=O)c2cccc(Br)n2)CC1 [(6-Bromo-pyridin-2-yl)-(4-isopropyl-[1,4]diazepan-1-yl)-methanone] | 0.752 µM |
| CC(C)N1CCN(C(=O)c2cccc(Br)n2)CC1 [(6-Bromo-pyridin-2-yl)-(4-isopropyl-piperazin-1-yl)-methanone] | 1.4 µM |

same assay, conditions: cloned human H3 receptors stably expressed in SK-N-MC cells; average of the results obtained; read-out: Human H3 Ki

| Ki | SMILES |
| --- | --- |
| 0.029 µM | CC(C)N1CCN(C(=O)c2ccc(Oc3ccc(Cl)c(Cl)c3)nc2)CC1 [Example 1, [6-(3,4-Dichloro-phenoxy)-pyridin-3-yl]-(4-isopropyl-piperazin-1-yl)-methanone] |
| 0.056 µM | CC(C)N1CCN(C(=O)c2ccc(Oc3cccnc3)nc2)CC1 [Example 2, (4-Isopropyl-piperazin-1-yl)-[6-(pyridin-3-yloxy)-pyridin-3-yl]-methanone] |
| 0.066 µM | CSc1ccc(Oc2ccc(C(=O)N3CCN(C(C)C)CC3)cn2)cc1 [Example 3, (4-Isopropyl-piperazin-1-yl)-[6-(4-methylsulfanyl-phenoxy)-pyridin-3-yl]-methanone] |
| 0.056 µM | CC(C)N1CCN(C(=O)c2ccc(Oc3cccc(Cl)c3)nc2)CC1 [Example 4, [6-(3-Chloro-phenoxy)-pyridin-3-yl]-(4-isopropyl-piperazin-1-yl)-methanone] |
| 0.071 µM | CC(C)N1CCN(C(=O)c2ccc(Oc3ccccc3)nc2)CC1 [Example 5, (4-Isopropyl-piperazin-1-yl)-(6-phenoxy-pyridin-3-yl)-methanone] |
| 0.032 µM | Cc1cc(Oc2ccc(C(=O)N3CCN(C(C)C)CC3)cn2)ccc1Cl [Example 6, [6-(4-Chloro-3-methyl-phenoxy)-pyridin-3-yl]-(4-isopropyl-piperazin-1-yl)-methanone] |
| 0.057 µM | CC(C)N1CCN(C(=O)c2ccc(Oc3cccc(C#N)c3)nc2)CC1 [Example 7, 3-[5-(4-Isopropyl-piperazine-1-carbonyl)-pyridin-2-yloxy]-benzonitrile] |
| 0.068 µM | CC(C)N1CCN(C(=O)c2ccc(Oc3ccc(Cl)cc3)nc2)CC1 [Example 8, [6-(4-Chloro-phenoxy)-pyridin-3-yl]-(4-isopropyl-piperazin-1-yl)-methanone] |
| 0.01 µM | O=C(c1ccc(Oc2ccc(Cl)cc2)nc1)N1CCCN(C2CC2)CC1 [Example 10, [6-(4-Chloro-phenoxy)-pyridin-3-yl]-(4-cyclopropyl-[1,4]diazepan-1-yl)-methanone] |
| 0.008 µM | CC(C)N1CCCN(C(=O)c2ccc(Oc3ccc(Cl)c(Cl)c3)nc2)CC1 [Example 15, [6-(3,4-Dichloro-phenoxy)-pyridin-3-yl]-(4-isopropyl-[1,4]diazepan-1-yl)-methanone] |
| 0.002 µM | Cc1cc(Oc2ccc(C(=O)N3CCCN(C4CCC4)CC3)cn2)ccc1Cl [Example 16, [6-(4-Chloro-3-methyl-phenoxy)-pyridin-3-yl]-(4-cyclobutyl-[1,4]diazepan-1-yl)-methanone] |
| 0.005 µM | Cc1cc(Oc2ccc(C(=O)N3CCCN(C(C)C)CC3)cn2)ccc1Cl [Example 17, [6-(4-Chloro-3-methyl-phenoxy)-pyridin-3-yl]-(4-isopropyl-[1,4]diazepan-1-yl)-methanone] |
| 0.18 µM | O=C(c1ccc(Oc2ccc(F)cc2)nc1)N1CCN(C2CC2)CC1 [Example 22, (4-Cyclopropyl-piperazin-1-yl)-[6-(4-fluoro-phenoxy)-pyridin-3-yl]-methanone] |
| 0.013 µM | CC(C)N1CCN(C(=O)c2ccc(Oc3ccc(F)c(F)c3)nc2)CC1 [Example 28, [6-(3,4-Difluoro-phenoxy)-pyridin-3-yl]-(4-isopropyl-piperazin-1-yl)-methanone] |
| 0.001 µM | O=C(c1ccc(Oc2cc(Cl)cc(Cl)c2)nc1)N1CCCN(C2CCC2)CC1 [Example 33, (4-Cyclobutyl-[1,4]diazepan-1-yl)-[6-(3,5-dichloro-phenoxy)-pyridin-3-yl]-methanone] |
| 0.005 µM | O=C(c1ccc(Oc2cc(F)ccc2F)nc1)N1CCCN(C2CC2)CC1 [Example 34, (4-Cyclopropyl-[1,4]diazepan-1-yl)-[6-(2,5-difluoro-phenoxy)-pyridin-3-yl]-methanone] |
| 0.003 µM | O=C(c1ccc(Oc2cc(Cl)cc(Cl)c2)nc1)N1CCCN(C2CC2)CC1 [Example 35, (4-Cyclopropyl-[1,4]diazepan-1-yl)-[6-(3,5-dichloro-phenoxy)-pyridin-3-yl]-methanone] |
| 0.006 µM | CC(C)N1CCCN(C(=O)c2ccc(Oc3cccc(F)c3)nc2)CC1 [Example 38, [6-(3-Fluoro-phenoxy)-pyridin-3-yl]-(4-isopropyl-[1,4]diazepan-1-yl)-methanone] |

| Ki | SMILES |
| --- | --- |
| 0.012 µM | CSc1ccc(Oc2ccc(C(=O)N3CCCN(C(C)C)CC3)cn2)cc1C [Example 42, (4-Isopropyl-[1,4]diazepan-1-yl)-[6-(3-methyl-4-methylsulfanyl-phenoxy)-pyridin-3-yl]-methanone] |
| 0.299 µM | CC(C)N1CCN(C(=O)c2cccc(Oc3ccc(Cl)c(Cl)c3)n2)CC1 [Example 43, [6-(3,4-Dichloro-phenoxy)-pyridin-2-yl]-(4-isopropyl-piperazin-1-yl)-methanone] |
| 0.327 µM | O=C(c1cccc(Oc2ccc(Cl)c(Cl)c2)n1)N1CCCN(C2CC2)CC1 [Example 44, (4-Cyclopropyl-[1,4]diazepan-1-yl)-[6-(3,4-dichloro-phenoxy)-pyridin-2-yl]-methanone] |
| 0.034 µM | O=C(c1cccc(Oc2ccc(Cl)c(Cl)c2)n1)N1CCCN(C2CCC2)CC1 [Example 45, (4-Cyclobutyl-[1,4]diazepan-1-yl)-[6-(3,4-dichloro-phenoxy)-pyridin-2-yl]-methanone] |
| 0.202 µM | CC(C)N1CCCN(C(=O)c2cccc(Oc3ccc(Cl)c(Cl)c3)n2)CC1 [Example 46, [6-(3,4-Dichloro-phenoxy)-pyridin-2-yl]-(4-isopropyl-[1,4]diazepan-1-yl)-methanone] |
| 0.357 µM | Cc1cc(Oc2cccc(C(=O)N3CCCN(C4CC4)CC3)n2)ccc1Cl [Example 47, [6-(4-Chloro-3-methyl-phenoxy)-pyridin-2-yl]-(4-cyclopropyl-[1,4]diazepan-1-yl)-methanone trifluoroacetic acid salt] |
| 0.067 µM | Cc1cc(Oc2cccc(C(=O)N3CCCN(C4CCC4)CC3)n2)ccc1Cl [Example 48, [6-(4-Chloro-3-methyl-phenoxy)-pyridin-2-yl]-(4-cyclobutyl-[1,4]diazepan-1-yl)-methanone trifluoroacetic acid salt] |
| 0.115 µM | Cc1cc(Oc2cccc(C(=O)N3CCCN(C(C)C)CC3)n2)ccc1Cl [Example 49, [6-(4-Chloro-3-methyl-phenoxy)-Pyridin-2-yl]-(4-isopropyl-[1,4]diazepan-1-yl)-methanone trifluoroacetic acid salt] |
| 0.018 µM | CC(C)N1CCCN(C(=O)c2ccc(Oc3ccc(Cl)c(Cl)c3)cn2)CC1 [Example 50, [5-(3,4-Dichloro-phenoxy)-pyridin-2-yl]-(4-isopropyl-[1,4]diazepan-1-yl)-methanone trifluoroacetic acid salt] |
| 0.049 µM | CC(C)N1CCN(C(=O)c2ccc(Oc3ccc(Cl)c(Cl)c3)c(C#N)n2)CC1 [Example 53, 3-(3,4-Dichloro-phenoxy)-6-(4-isopropyl-piperazine-1-carbonyl)-pyridine-2-carbonitrile trifluoroacetic acid salt] |
| 0.104 µM | CC(C)N1CCN(C(=O)c2ccc(Oc3ccc(Cl)c(Cl)c3)c(C(N)=O)n2)CC1 [Example 54, 3-(3,4-Dichloro-phenoxy)-6-(4-isopropyl-piperazine-1-carbonyl)-pyridine-2-carboxylic acid amide trifluoroacetic acid salt] |
| 0.021 µM | CSc1ccc(Oc2ccc(C(=O)N3CCCN(C4CC4)CC3)nc2C#N)cc1 [Example 55, 6-(4-Cyclopropyl-[1,4]diazepane-1-carbonyl)-3-(4-methylsulfanyl-phenoxy)-pyridine-2-carbonitrile] |
| 0.01 µM | N#Cc1nc(C(=O)N2CCCN(C3CC3)CC2)ccc1Oc1ccc(Cl)c(Cl)c1 [Example 58, 6-(4-Cyclopropyl-[1,4]diazepane-1-carbonyl)-3-(3,4-dichloro-phenoxy)-pyridine-2-carbonitrile] |
| 0.029 µM | N#Cc1nc(C(=O)N2CCCN(C3CC3)CC2)ccc1Oc1cccc(F)c1 [Example 60, 6-(4-Cyclopropyl-[1,4]diazepane-1-carbonyl)-3-(3-fluoro-phenoxy)-pyridine-2-carbonitrile] |
| 0.036 µM | CSc1ccc(Oc2ccc(C(=O)N3CCCN(C4CC4)CC3)nc2C(N)=O)cc1 [Example 62, 6-(4-Cyclopropyl-[1,4]diazepane-1-carbonyl)-3-(4-methylsulfanyl-phenoxy)-pyridine-2-carboxylic acid amide] |
| 0.032 µM | NC(=O)c1nc(C(=O)N2CCCN(C3CC3)CC2)ccc1Oc1cccnc1 [Example 63, 6-(4-Cyclopropyl-[1,4]diazepane-1-carbonyl)-3-(pyridin-3-yloxy)-pyridine-2-carboxylic acid amide] |
| 0.165 µM | CC(C)N1CCN(C(=O)c2ccc(Oc3ccc(Cl)c(Cl)c3)c(CN)n2)CC1 [Example 64, [6-Aminomethyl-5-(3,4-dichloro-phenoxy)-pyridin-2-yl]-(4-isopropyl-piperazin-1-yl)-methanone trifluoroacetic acid salt] |
